Consider four compounds from patent publication EP0095833A2 (priority 1982, dated 1983).

Where two headings read alike, the source gives them in different places.

Assay [1] relates to Sindbis virus. Particulars: BHK-21 cells; 0.1 mM chloroquine or 10 µg of cytochalasin B for thirty minutes before infection; Sindbis virus 5,000 PFU; 30 or 60 minutes at room temperature; cited from earlier work.
Assay [2] relates to vesicular stomatitis virus. The conditions noted are these: cited from earlier work.
Assay [3] concerns VSV.
In assay [4] the test system is VSV. It counts as cell-based. Particulars: for Titer obtained (PFU/ml): pretreated for 2 hours, one-step growth (18 hours).
Assay [5] has as its system VSV. The format is cell-based. The conditions noted are these: HeLa cells, Figure 2.
Assay [6] deals with VSV. The format is cell-based. Particulars: 20 mM.
The test system of assay [7] is Polio virus. It counts as cell-based.
In assay [8] the test system is Vaccinia virus. It counts as cell-based.
Assay [9] has as its system VSV. The format is cell-based.
Assay [10] concerns Reovirus III. It counts as cell-based.
In assay [11] the test system is VSV. It counts as cell-based. The source holds these as a separate data set.
Setting [12] is: 20 mM, added from 2 hours before inoculation.
[13] abbreviates: 20 mM NH4Cl from the second hour before infection to the eighteenth hour after, Figure 7 panel A.
Where [14] appears, read: 20 mM NH4Cl from the second hour before inoculation to the seventh hour after, Figure 5 panel A.

Take `CCN(CC)CCCC(C)Nc1ccnc2cc(Cl)ccc12` (centres unmarked) [chloroquine]: in assay [1], the “internalization by endocytosis of the virus” value is recorded as “either enhanced or took place normally”.

Consider `C=C1[C@@H](C)[C@H]2[C@H](Cc3ccccc3)NC(=O)[C@]23OC(=O)/C=C/[C@H](O)CCC[C@@H](C)C/C=C/[C@H]3[C@@H]1O` [cytochalasin B], for which, in [2], the “yields of VSV” value is reported as “the same as untreated (control) cells”. The “internalization by endocytosis of the virus” value in [1] is given as “blocked”.

As for `Cc1cc2nc3ccc(N(C)C)cc3nc2cc1N.Cl` [Neutral Red], in assay [3] (procedure of Example III, at these concentrations (70 µM and 100 µM)), the virucidal effect entry is “no virucidal effect”. Moreover, the “Titer obtained (PFU/ml)” value in assay [4] (70 µM Neutral Red) is given as 9.0 x 10^7 PFU/ml; in assay [4] (100 µM Neutral Red) it was 0 PFU/ml. For the same compound, the “growth of VSV” value in assay [4] (100 µM (29 µg/ml)) is recorded as “completely inhibits”.

Take `Cl.N` [NH4Cl, ammonium chloride]: the “lag period before rather normal viral RNA synthesis” value in assay [5] (20 mM NH4Cl from 2 hours before inoculation, withdrawal at the sixth hour after inoculation) amounted to 6 h. For the same compound, the “viral RNA synthesis” value in assay [5] (20 mM NH4Cl from 2 hours before to 18 hours after inoculation) was “seriously reduced”. Further, in assay [5] (20 mM NH4Cl only added after inoculation, until 18 hours), the “viral RNA synthesis” value is “strongly reduced”. Besides, the “virucidal effect against VSV” value in [3] (20 mM NH4Cl in PBS, incubated at 37°C, titrated at various times) is on record as “no virucidal effect”. Besides, in [6] (added from 2 hours before inoculation), the “development of VSV” value is given as “completely inhibits”. In assay [6] (in L, BHK, and BGM cells), the “development of VSV, compared with Table I” value was “Identical results”. The “viral development of Polio virus” value in assay [7] (setting [12]) is on record as “No action”. Also, the “Virions produced in infected 20mM NH4Cl* treated cells” value in [7] (BGM cells, Polio virus, 20 mM NH4Cl from 2 hours before inoculation, end of one step growth) was 4.15 x 10^8PFU/ml. Besides, the “viral development of Vaccinia” value in [8] (setting [12]) is “No action”. For the same compound, the “Virions produced in infected 20mM NH4Cl* treated cells” value in [8] (L cells, Vaccinia virus, 20 mM NH4Cl from 2 hours before inoculation, end of one step growth) is 3.5 x 10^6PFU/ml. Further, the “viral cores and virions in supernatant” value in [9] (treated from the second hour before inoculation to the eighteenth hour after, Figure 3 panel B) is “neither viral cores nor virions”. Moreover, the virions in supernatant result in [9] (treated from the second hour before to the sixth hour after inoculation, 18 hours, versus untreated, Figure 3 panel A) is “lower amount”. The “viral cores in supernatant” value in [9] (treated immediately after inoculation, 18 hours, versus untreated, Figure 3 panel B) was “lower level”. The “development of Reovirus” value in [10] is reported as “completely inhibits”. In assay [10] (20 mM), the “development of Reovirus III, compared with Table I” value was “Identical results”. For the same compound, the “infection (viral m RNAs and 42S mature RNA in cytoplasmic extracts)” value in assay [11] (20 mM NH4Cl from immediately after inoculation to the eighteenth hour after, Figure 7 panel B) is given as “slight reduction”. In assay [11] (setting [13]), the “42S viral RNA in cytoplasmic extracts” value is reported as “do not contain” and the “viral m RNAs in cytoplasmic extracts” value is recorded as “do not contain”. In assay [11] (20 mM NH4Cl from the second hour before infection to the sixth hour after, 18 hours after infection, Figure 6 panel B), the “amount of 42S mature viral RNA in cytoplasmic extracts” value is given as “lower than in untreated cells”. The “viral m RNAs (31S, 17S, 14.5S, 12S) in cytoplasmic extracts” value in [11] (20 mM NH4Cl from the second hour before infection to the sixth hour after, 18 hours after infection, versus untreated, Figure 6 panel B) is reported as “more”. Further, in [11] (setting [14]), the “complete virus (625S) in cytoplasmic extract” value is listed as “large amount” and the “viral cores (120s) in cytoplasmic extract” value is given as “negligible amount”.
